Calls of active or inactive are those of the source. No cut-off for these calls is given here.
Tests used:
HT-22 [1] = experiment: Reduction in ROS accumulation in RSL-3 treated […] cells assessed as reduction in fluorescence intensity at 1 uM incubated for 4 hrs by C11-BODIPY staining based confocal laser scanning microscopic analysis; type: functional, cell-based; details: Mus musculus
HT-22 [2] = experiment: Inhibition of RSL-3 induced Ptgs2 mRNA expression in […] cells measured after 4 hrs by quantitative PCR analysis; type: functional, cell-based; details: Mus musculus, dose 1.25-5 µM
[3] = Permeability of the compound in PBS/EtOH buffer (70:30) incubated for 10 hrs by UV plate reader based PAMPA-BBB assay; type: ADME; details: read-out: permeability
HT-22 [4] = experiment: Anti-ferroptotic activity against Erastin-induced ferroptosis in […] cells assessed as […] cell viability measured after 24 hrs by MTT assay; type: functional, cell-based; details: Mus musculus, HT-22, 24 h
HT-22 [5] = experiment: Anti-ferroptotic activity against Erastin-induced ferroptosis in […] cells assessed as […] cell viability measured after 24 hrs by MTT assay relative to control; type: functional, Mus musculus
HT-22 [6] = experiment: Anti-ferroptotic activity against RSL-3 induced ferroptosis in […] cells assessed as inhibition of cell death measured after 24 hrs by MTT assay; type: functional, cell-based; details: Mus musculus, HT-22, 24 h
Rattus norvegicus [7] = experiment: Neuroprotective activity against middle cerebral artery occlusion-induced ischemia-reperfusion injury Sprague-Dawley rat model assessed as reduction in 4-HNE level at 20 mg/kg, ip measured after 24 hrs by TTC staining based assay; type: functional, organism-based
HT-22 [8] = experiment: Anti-ferroptotic activity against Erastin-induced ferroptosis in […] cells assessed as inhibition of cell death measured after 24 hrs by MTT assay; type: functional, cell-based; details: Mus musculus, HT-22, 24 h
HT-22 [9] = experiment: Upregulation of FSP1 protein level in […] cells assessed as increase in reduced to oxidized COQ10 ratio measured after 6 hrs by Western blot analysis; type: functional, cell-based; details: Mus musculus
HT-22 [10] = experiment: Anti-ferroptotic activity against RSL-3-induced morphological changes in […] cells assessed as retention of cell morphology measured after 24 hrs; type: functional, cell-based; details: Mus musculus, dose 1.25-5 µM, DDE = dose-dependent effect
Rattus norvegicus [11] = experiment: Neuroprotective activity against middle cerebral artery occlusion-induced ischemia-reperfusion injury Sprague-Dawley rat model assessed as reduction in infarct volume at 20 mg/kg, ip measured after 24 hrs by TTC staining based assay; type: functional, organism-based
Rattus norvegicus [12] = experiment: Neuroprotective activity against middle cerebral artery occlusion-induced ischemia-reperfusion injury Sprague-Dawley rat model assessed as morphological changes at 20 mg/kg, ip measured after 24 hrs by H and E staining-based assay; type: functional, organism-based
Rattus norvegicus [13] = experiment: Neuroprotective activity against middle cerebral artery occlusion-induced ischemia-reperfusion injury Sprague-Dawley rat model assessed as reduction in neurobehavioral defects at 20 mg/kg, ip measured after 24 hrs by Longa test; type: functional, organism-based
Rattus norvegicus [14] = experiment: Neuroprotective activity against middle cerebral artery occlusion-induced ischemia-reperfusion injury Sprague-Dawley rat model assessed as reduction in MDA level at 20 mg/kg, ip measured after 24 hrs by TTC staining based assay; type: functional, organism-based
Rattus norvegicus [15] = experiment: Neuroprotective activity against middle cerebral artery occlusion-induced ischemia-reperfusion injury Sprague-Dawley rat model assessed as reduction in PTGS2 mRNA expression level at 20 mg/kg, ip measured after 24 hrs by TTC staining based assay; type: functional, organism-based
HT-1080 [16] = experiment: Anti-ferroptotic activity against siRNA-mediated GPX4 knockdown induced ferroptosis in human HT-1080 cells at 5 uM preincubated for 12 hrs in Opti-MEM medium followed by compound addition and measured after 36 hrs; type: functional, cell-based
Rattus norvegicus [17] = experiment: Neuroprotective activity against middle cerebral artery occlusion-induced ischemia-reperfusion injury Sprague-Dawley rat model assessed as morphological changes at 20 mg/kg, ip measured after 24 hrs by Nissl staining based assay; type: functional, organism-based
HT-22 [18] = experiment: Upregulation of FSP1 mRNA level in […] cells measured after 6 hrs by quantitative PCR analysis; type: functional, cell-based; details: Mus musculus, dose 1.25-5 µM
HT-22 [19] = experiment: Upregulation of FSP1 protein level in […] cells measured after 6 hrs by Western blot analysis; type: functional, cell-based; details: Mus musculus, dose 1.25-5 µM
HT-22 [20] = experiment: Effect on intracellular Fe2+ level in […] cells assessed as fluorescence intensity at 5 uM measured after 10 hrs by Hoechst/FerroOrange staining based confocal laser microscopy; type: functional, cell-based; details: Mus musculus
HT-22 [21] = experiment: Reduction in ROS accumulation in RSL-3 treated […] cells assessed as reduction in fluorescence intensity at 5 uM incubated for 4 hrs by C11-BODIPY staining based confocal laser scanning microscopic analysis; type: functional, cell-based; details: Mus musculus
HT-22 [22] = experiment: Reduction in lipid ROS accumulation in RSL-3 treated […] cells incubated for 4 hrs by C11-BODIPY staining based flow cytometric analysis; type: functional, cell-based; details: Mus musculus, dose 1.25-5 µM, DDE = dose-dependent effect
HT-22 [23] = experiment: Reduction in cytosolic ROS accumulation in RSL-3 treated […] cells incubated for 4 hrs by H2DCFDA fluorescent probe based flow cytometry method; type: functional, cell-based; details: Mus musculus, dose 1.25-5 µM, DDE = dose-dependent effect
HT-1080 [24] = experiment: Anti-ferroptotic activity against siRNA-mediated GPX4 knockdown induced ferroptosis in human HT-1080 cells at 1 uM preincubated for 12 hrs in Opti-MEM medium followed by compound addition and measured after 36 hrs; type: functional, cell-based
HT-22 [25] = experiment: Anti-ferroptotic activity against RSL-3-induced morphological changes in […] cells assessed as retention of cell morphology at 1 uM measured after 24 hrs; type: functional, cell-based; details: Mus musculus
HT-22 [26] = experiment: Cytotoxicity against […] cells at 40 uM; type: toxicity, cell-based; details: mouse, ht-22, 40 µM
[27] = Metal chelating activity assessed as compound-Fe3+ complex formation at 50 uM by UV-Vis spectroscopic analysis
[28] = Metal chelating activity assessed as compound-Fe2+ complex formation at 50 uM by UV-Vis spectroscopic analysis

Which Activity (HT-22 [1]) does the source give for `COC(=O)c1ccc([C@H]2c3[nH]c4ccccc4c3C[C@H](C(=O)OC)N2C(=O)CCl)cc1` here?
The Activity was “Active”.

What about the inhibition (HT-22 [2]) of the same compound?
The inhibition was “Active”.

For `COc1ccccc1/C=C/C=C(/C(=O)N1CCN(c2ncccn2)CC1)c1ccccc1`, which Papp at 10 h [3] is on record?
Its Papp at 10 h is 13.6 ×10⁻⁶ cm/s.

And the EC50 (HT-22 [4])?
Its EC50 is over 20 µM.

What does the source list for `O=C(/C(=C/C=C/c1ccccc1)c1ccc(O)cc1)N1CCN(c2ncccn2)CC1`?
Papp at 10 h [3]: 8.3 ×10⁻⁶ cm/s; EC50 (HT-22 [4]): > 20 µM

Which results are given for `O=C(/C(=C/C=C/c1cccc(O)c1)c1ccccc1)N1CCN(c2ncccn2)CC1`?
Papp at 10 h [3]: 9.9 ×10⁻⁶ cm/s; EC50 (HT-22 [4]): > 20 µM

For `COc1cccc(OC)c1/C=C/C=C(/C(=O)N1CCN(c2ncccn2)CC1)c1ccccc1`, which EC50 (HT-22 [4]) is on record?
Its EC50 is over 20 µM.

With `COc1cc(/C=C/C=C(/C(=O)N2CCN(c3ncccn3)CC2)c2cccc(O)c2)ccc1O` as the compound, how does the Papp at 10 h [3] read?
The Papp at 10 h was 5.2 ×10⁻⁶ cm/s.

And the Activity (HT-22 [5])?
Its Activity is 84.2%.

And the EC50 (HT-22 [4])?
The EC50 was 4.5 µM.

What does the source list for `COc1cc(/C=C/C=C(/C(=O)N2CCN(c3ncccn3)CC2)c2ccccc2)ccc1O`?
EC50 (HT-22 [6]): 1.7 µM; Activity (Rattus norvegicus [7]): Active; Papp at 10 h [3]: 15.3 ×10⁻⁶ cm/s; EC50 (HT-22 [8]): 1.7 µM; Activity (HT-22 [9]): Active; Activity (HT-22 [5]): 76.7%; EC50 (HT-22 [4]): 1.7 µM; Activity (HT-22 [10]): Dde; Activity (Rattus norvegicus [11]): Active; Activity (Rattus norvegicus [12]): Active; Activity (Rattus norvegicus [13]): Active; Activity (Rattus norvegicus [14]): Active; Activity (Rattus norvegicus [15]): Active; Activity (HT-1080 [16]): Active; Activity (Rattus norvegicus [17]): Active; Activity (HT-22 [18]): Active; Activity (HT-22 [19]): Active; Activity (HT-22 [20]): Active; inhibition (HT-22 [2]; DDE = dose-dependent effect): Dde; Activity (HT-22 [21]): Active; Activity (HT-22 [22]): Dde; Activity (HT-22 [23]): Dde

Which Papp at 10 h [3] does the source give for `COc1cccc(/C=C/C=C(/C(=O)N2CCN(c3ncccn3)CC2)c2ccccc2)c1` here?
The Papp at 10 h was 10.2 ×10⁻⁶ cm/s.

What about the EC50 (HT-22 [4]) of the same compound?
Its EC50 is over 20 µM.

Which Papp at 10 h [3] does the source give for `COc1cc(/C(=C\C=C\c2ccccc2)C(=O)N2CCN(c3ncccn3)CC2)ccc1O` here?
The Papp at 10 h was 10.2 ×10⁻⁶ cm/s.

And the EC50 (HT-22 [4])?
Its EC50 is over 20 µM.

With `COc1ccc(/C=C/C=C(/C(=O)N2CCN(c3ncccn3)CC2)c2ccccc2)c(OC)c1` as the compound, how does the Papp at 10 h [3] read?
Its Papp at 10 h is 18.9 ×10⁻⁶ cm/s.

What about the EC50 (HT-22 [4]) of the same compound?
Its EC50 is over 20 µM.

Which results are given for `CCOC(=O)c1ccc(NC2CCCCC2)c(N)c1`?
Activity (HT-22 [1]): Active; Activity (HT-1080 [24]): Active; Activity (HT-22 [25]): Active

For `O=C(/C(=C/C=C/c1ccc(O)cc1)c1ccccc1)N1CCN(c2ncccn2)CC1`, which Papp at 10 h [3] is on record?
Its Papp at 10 h is 5.2 ×10⁻⁶ cm/s.

And the Activity (HT-22 [5])?
Its Activity is 81.9%.

What about the EC50 (HT-22 [4]) of the same compound?
Its EC50 is 12 µM.

And the Activity (HT-22 [26])?
Its Activity is “Non-Toxic”.

What does the source list for `O=C(/C(=C/C=C/c1ccccc1)c1cccc(O)c1)N1CCN(c2ncccn2)CC1`?
Papp at 10 h [3]: 14.5 ×10⁻⁶ cm/s; EC50 (HT-22 [4]): > 20 µM

What does the source list for `COc1cc(/C=C/C=C(/C(=O)N2CCN(c3ncccn3)CC2)c2ccc(O)c(OC)c2)ccc1O`?
Papp at 10 h [3]: 5.3 ×10⁻⁶ cm/s; Activity (HT-22 [5]): 79.5%; EC50 (HT-22 [4]): 4 µM

Which results are given for `CC(=O)N(O)CCCCCNC(=O)CCC(=O)N(O)CCCCCNC(=O)CCC(=O)N(O)CCCCCN`?
Activity [27]: Active; Activity [28]: Active

With `COc1ccc(/C(=C\C=C\c2ccccc2)C(=O)N2CCN(c3ncccn3)CC2)cc1OC` as the compound, how does the Papp at 10 h [3] read?
Its Papp at 10 h is 16.4 ×10⁻⁶ cm/s.

What about the EC50 (HT-22 [4]) of the same compound?
Its EC50 is over 20 µM.

For `COc1ccc(/C=C/C=C(/C(=O)N2CCN(c3ncccn3)CC2)c2ccccc2)cc1`, which Papp at 10 h [3] is on record?
The Papp at 10 h was 15.7 ×10⁻⁶ cm/s.

What about the EC50 (HT-22 [4]) of the same compound?
The EC50 was over 20 µM.
